Experimental data published in paper PMC3753236, “Glucocorticosteroids in Nano-Sterically Stabilized Liposomes Are Efficacious for Elimination of the Acute Symptoms of Experimental Cerebral Malaria” (PLoS ONE, 2013).
pIC50: −log10 of the molar value. Counter-ions that a name gives are not always drawn. Like-named read-outs stand apart in the source and are kept apart here. Each block holds one compound with its values, some of them ahead of it.

Legend:
[1] = test system: non-chloroquine resistant P. falciparum; experiment: P. falciparum culture, 3H-hypoxanthine incorporation; type: cell-based, Plasmodium falciparum; conditions: Plasmodium falciparum
Protocol: The parasite was grown in a human red blood cell culture (RPMI 1640, 7.5% bicarbonate, 50 µM hypoxanthine, 50 µg/ml gentamycin, and 7.5% human plasma) at 1% hematocrit and 2% parasitemia. Cultures containing predominantly ring forms were used; synchronization of the culture was performed if trophozoites represented more than 1–2% of the various developmental stages. Briefly, the culture was centrifuged and the supernatant replaced by 5% (isotonic) sorbitol. After 5 minutes at 37°C the culture was centrifuged again and the supernatant replaced by culture medium to obtain a final 1% hematocrit.
Drug testing was performed in 96-well microtiter plates incubated at 37°C in a 5% O2, 5% CO2, and 90% N2 gas mixture for 72 hours. After 48 hours, 1 µCi ^3H-hypoxanthine was added to each well and the plates were read the next day using a scintillation counter.

[2] = cited from earlier work
[3] = test system: Plasmodium berghei ANKA (PbAus); experiment: Early treatment of ECM, PbAus-inoculated C57Bl/6 mice (with sequential artemisone)
Protocol: (§1) Plasmodium berghei ANKA (PbA; PbA MRA-311, CDC, Atlanta, GA, USA) was maintained in vivo by serial transfer of parasitized erythrocytes (PE) from infected to naïve mice. Experiments were also performed using a second strain of PbA, similarly maintained, and designated PbAus in the text (courtesy of Prof. G. Grau, University of Sydney, Australia).
(§2) Parasitemia was monitored by thin blood smears prepared from tail blood. These were stained with a 25% Giemsa solution, examined under a light microscope, and parasitemia determined as the percent of infected red blood cells per 10,000 erythrocytes. Disease severity was determined according to scoring of neurological symptoms and changes in weight and temperature, as previously described […] Parasitemias above 20% and the absence of neurological symptoms indicated severe anemic malaria.
(§3) For early ECM treatment, injections were given on days 3, 5, 7, and 9 p.i; for late treatment, treatment was given every other day, starting on day 5 p.i. for a total of at least two injections. Infected, non-treated control mice were injected with 5% dextrose or empty nSSL. Clinical signs and parasitemias were monitored and disease severity scored as described […] At each time-point, at least 3 mice from each group were chosen at random, deeply anesthetized, and brains were removed following intracardial perfusion (using saline, if organs were destined for real-time (rt)PCR analysis, or saline/formalin, if organs were destined for histopathological analysis). Organs destined for rtPCR analysis were snap-frozen in liquid nitrogen and stored at −80°C until use. Organs destined for immunohistology were immediately immersed in cryoprotectant solution (see below).

[4] = test system: Plasmodium berghei ANKA (PbAus); experiment: Late-stage treatment of ECM followed by artemisone, PbAus-infected C57Bl/6 mice
Protocol: as §1, §2, §3

[5] = test system: Plasmodium berghei ANKA (PbA); experiment: Early treatment of experimental cerebral malaria (ECM), ICR mice infected with PbA
Protocol: as §1, §2
as §3, with “described […] Surviving mice were treated with 2×10 mg/kg/d artemisone by intraperitoneal injection in order to achieve cure; mice were monitored for four weeks post-artemisone treatment in order to allow detection of possible late recrudescence.” for “described”

ECM = test system: ECM; parameters: method as in Clemmer et al. [28]; conditions: after the appearance of clinical signs of neuropathology; ref Clemmer et al. [28]; cited from earlier work
[6] = 72 h culture, 3H-hypoxanthine, read-out: IC50

- pIC50 [1, 6]: 6.42
Structure (SMILES): C=C[C@H]1C[N@@]2CC[C@H]1C[C@H]2[C@H](O)c1ccnc2ccc(OC)cc12 [Quinine, quinine]

Structure (SMILES): C[C@H]1C[C@H]2[C@@H]3CCC4=CC(=O)C=C[C@]4(C)[C@@]3(F)[C@@H](O)C[C@]2(C)[C@@]1(O)C(=O)CO [β-methasone]
- Potency relative to hydrocortisone ([2]; ref [15]): 25–30 fold

- pIC50 [1]: 7.40
Structure (SMILES): CCN(CC)CCCC(C)Nc1ccnc2cc(Cl)ccc12 (stereo not shown) [Chloroquine, chloroquine]

Structure (SMILES): C[C@H]1[C@H](N2CCS(=O)(=O)CC2)O[C@@H]2O[C@@]3(C)CC[C@H]4[C@H](C)CC[C@@H]1[C@@]24OO3 [Artemisone, reference compound]
- pIC50 [1, 6]: 9.40
- Outcome of artemisone treatment following nSSL-BMS ([3]; 2×20 mg/kg artemisone i.p. days 11–15 p.i. after early 10 mg/kg nSSL-BMS, monitored four weeks for recrudescence): complete cure
- Time to zero parasitemia after the first injection (majority of cases) ([3]; 2×20 mg/kg artemisone i.p. days 11–15 p.i. following early 10 mg/kg nSSL-BMS): ≤ 24 h
- Mice that relapsed and died of ECM (of the total 17 administered artemisone) ([3]; 2×20 mg/kg/d artemisone days 11–15 p.i. after 10 mg/kg free or nSSL-BMS): One
- Outcome of artemisone monotherapy ([3]; beginning on day 11 p.i.): ineffective
- Outcome of artemisone after nSSL-BMS started day 5 p.i. ([4]; 2×20 mg/kg/d artemisone on days 11–15 p.i., monitored three weeks): complete cure
- Outcome of artemisone after nSSL-BMS started day 7 p.i. ([4]; all remaining mice died of severe anemic malaria): ineffective
- Outcome of artemisone after nSSL-BMS started day 6 p.i. ([4]; subsequent artemisone administration): cure in all mice

- pIC50 [1, 6]: 10.00
Structure (SMILES): C[C@H]1[C@@H](O)O[C@@H]2O[C@@]3(C)CC[C@H]4[C@H](C)CC[C@@H]1[C@@]24OO3 [Dihydroartemisinin, dihydroartemisinin]

Structure (SMILES): C[C@H]1C[C@@H]2[C@H]([C@@H](O)C[C@@]3(C)[C@H]2CC[C@]3(O)C(=O)COC(=O)CCC(=O)O)[C@@]2(C)C=CC(=O)C=C12 [MPS, methylprednisolone hemisuccinate sodium salt]
- pIC50 [1, 6]: 4.85
- Survival rate on day 11 ([5]; 10 mg/kg/d on days 3, 5, 7, 9 p.i.): 33%
- Toxicity in ECM mice ([5]; 25 mg/kg/d, preliminary experiments): mild toxicity
- Potency relative to hydrocortisone ([2]; ref [14]): ~5 times

- pIC50 [1, 6]: 9.89
Structure (SMILES): C[C@@H]1CC[C@H]2[C@@H](C)C(=O)O[C@@H]3O[C@@]4(C)CC[C@@H]1[C@]32OO4 [Artemisinin]

Structure (SMILES): CO[C@H]1O[C@@H]2O[C@@]3(C)CC[C@H]4[C@H](C)CC[C@@H]([C@H]1C)[C@@]24OO3 [artemether]
- Success rate of ECM rescue therapy (ECM): 43–46%

Structure (SMILES): C[C@H]1[C@H](OC(=O)CCC(=O)O)O[C@@H]2O[C@@]3(C)CC[C@H]4[C@H](C)CC[C@@H]1[C@@]24OO3 [artesunate]
- Success rate of ECM rescue therapy (ECM): 43–46%
